Where a SMILES comes first, the peptide text is derived from it.
Tests used:
[1] = Immunomodulatory effect (general statement, no method)
[2] = test system: picryl chloride-induced delayed type hypersensitivity; test: Inhibitory effect on picryl chloride-induced delayed type hypersensitivity (ear swelling); format: in vivo; conditions: BALB/C female mice, oral, once a day for 7 days, dose 10 mg/kg
Experimental: EXPERIMENT 2 Inhibitory effect on picryl chloride-induced delayed type
BALB/C female mice (10-week-old) were sensitized by spreading one ml of an ethanol solution containing 7 w/v % of picryl chloride to abdominal skin of the mice. In a "test group", a test compound was administered orally to the mice a day for 7 days from the day of sensitization.
7 Days after the sensitization, 10 μl of an olive oil solution containing 1 w/v % of picryl chloride was spread to both side skin of left external ear. 24 Hours later, the mice was sacrificed and the thickness of both ears was immediately measured.
The inhibition (%) of swelling of exterernal ear was calculated according to the following formula: [formula]

Compound | immunomodulatory effect [1] | Inhibition (%) of swelling of external ear [2] [%]
COC(=O)[C@H](Cc1c[nH]cn1)NC(=O)[C@H](Cc1ccccc1)NC(=O)[C@H](Cc1ccccc1)NC(C)=O [N-acetyl-L-phenylalanyl-L-phenylalanyl-L-histidine methyl ester] (Ac-Phe-Phe-His-OMe) | scarcely an immunomodulatory effect | 
COC(=O)[C@H](Cc1c[nH]cn1)NC(=O)[C@H](Cc1ccccc1)NC(=O)N(Cc1ccccc1)NC(=O)OC(C)(C)C [Example 13, 3-tert-butoxycarbonyl-2-benzylcarbazoyl-L-phenylalanyl-L-histidine methyl ester] |  | 72.6

Reference: US5202312A, “Imidazole-containing peptides having immunomodulatory activity” (Tanabe Seiyaku Co., Ltd., priority 1988, dated 1993)
